Values of other authors in paper PMC8124668, “Preclinical Assessment Addressing Intravenous Administration of a [^68Ga]Ga-PSMA-617 Microemulsion: Acute In Vivo Toxicity, Tolerability, PET Imaging, and Biodistribution” (Molecules, 2021).

Tested on: male rats
Set-up: method as in PMID 28283702
Conditions: once weekly IV bolus on days 1, 8, 15 and 22, at 400 mg/kg

SMILES: O=C(O)CCC(NC(=O)NC(CCCCNC(=O)C(Cc1ccc2ccccc2c1)NC(=O)C1CCC(CNC(=O)CN2CCN(CC(=O)O)CCN(CC(=O)O)CCN(CC(=O)O)CC2)CC1)C(=O)O)C(=O)O (stereo not shown) [PSMA-617, 2-[3-(1-Carboxy-5-{3-naphthalen-2-yl-2-[(4-{[2-(4,7,10-tris-carboxymethyl-1,4,7,10-tetraaza-cyclododec-1-yl)-acetylamino]-methyl}-cyclohexanecarbonyl)-amino]-propionylamino}-pentyl)-ureido]-pentanedioic acid]
- local or systemic intolerance reactions: No signs of local or systemic intolerance reactions
